Assay results taken from US20220000117A1, “METHOD FOR CONTROLLING DISEASES IN SMALL GRAIN CEREALS, SEED OF SMALL GRAIN CEREALS, AND METHOD FOR SUPPRESSING LODGING DAMAGE IN SMALL GRAIN CEREALS” (KUMIAI CHEMICAL INDUSTRY CO., LTD., priority 2019, published 2022).

Key:
[1] = test system: powdery mildew; experiment: Test Example 1: control test of wheat powdery mildew, field, wheat variety Haruyutaka; assay type: in vivo, Blumeria graminis; settings: Foliage Treatment, flag leaves, 79 days after seeding
Protocol: Seed of wheat (variety: Haruyutaka) sterilized in advance with commercial Benlate T wettable powder 20 (“Benlate” is a registered trademark) was used. In Example 1, seed having a mass of 1 kg was mixed into 100 ml of suspension water containing 5 g of dichlobentiazox, air-dried, and then, stripe-sown in a field with a furrow width of 30 cm and a ratio of 163 kg/ha (417 seeds/m^2). In contrast, in Comparative Example 1, seed which had not treated with dichlobentiazox was sown in a field in the same manner, and a spray solution corresponding to that obtained by suspending 500 g of dichlobentiazox in 200 liters of water per 1 ha was sprayed on foliage of wheat three times, during an ear emergence period (63 days after seeding), a flowering period (70 days after seeding), and a flowering end period (77 days after seeding). Similarly, in place of 500 g of dichlobentiazox in Comparative Example 1, 250 g of azoxystrobin (commercial Amistar 20 flowable was used. “Amistar” is a registered trademark) was used in Comparative Example 2, and 125 g of propiconazole (commercial Tilt emulsifiable concentrate 25 was used, “Tilt” is a registered trademark) was used in Comparative Example 3. The presence or absence of disease occurrence and a lesion area ratio of powdery mildew in flag leaves of 30 stems were investigated 79 days after seeding according to the criteria in Table 1, and a disease leaf rate and the degree of disease occurrence were calculated by the following calculation formula (1).
(§1) Degree of Disease Occurrence=Σ(Index×Number of Leaves of Index)/(4×Number of Investigated Leaves)×100 (1)

[2] = test system: septoria leaf blotch; experiment: Test Example 7: control test of septoria leaf blotch of wheat, field, wheat variety TRAPEZ; assay type: in vivo, Septoria tritici; settings: for Degree of Disease Occurrence: flag leaves, 219 days after seeding
Protocol: as §1
Seed of wheat (variety: TRAPEZ) was used. On seed having a mass of 1 kg, 20 ml of suspension water containing 0.5 g or 5 g of dichlobentiazox or isotianil was sprayed. In Examples 16, 17, and 18, the seed treated with the chemical was stripe-sown with a ratio of 100 kg/ha. In contrast, in Comparative Example 17, seed which had not treated with dichlobentiazox or isotianil was sown in a field in the same manner, and a spray solution corresponding to that obtained by suspending 750 g of chlomthalonil (commercial FUNGISTOP was used, “FUNGISTOP” is a registered trademark) in 200 liters of water per 1 ha was sprayed on foliage of wheat 154 days and 184 days after seeding. The severity of disease occurrence of septoria leaf blotch in flag leaves of 25 stems was investigated 219 days after seeding according to the criteria in Table 1, and the degree of disease occurrence was calculated by the above calculation formula (1).

[3] = test system: powdery mildew; experiment: Test Example 3: control test of wheat powdery mildew, cup in greenhouse, inoculated; assay type: in vivo, Blumeria graminis; set-up: key to Degree of Disease Occurrence: Σ(index×no. leaves of index)/(4×no. investigated leaves)×100; settings: for Degree of Disease Occurrence: 19 days after seeding
Protocol: as §1
(§2) Seed having a mass of 1 kg of wheat (variety: Norin No. 61) was mixed into 100 ml of suspension water containing 5 g or 0.5 g of dichlobentiazox or isotianil and air-dried, and then, 12 seeds were sown in a plastic cup having a diameter of 6 cm containing river sand and managed in a greenhouse. The number of emerged seeds was investigated nine days after seeding, and an emergence rate was calculated (Examples 6 to 9). In Comparative Examples 6 to 9, 20 ml of suspension water of an active ingredient, which had been adjusted to have a concentration shown in Table 4, was sprayed in a frame of 45 cm×45 cm in which a pot of wheat seedlings was placed (corresponding to 1000 L/ha) 14 days after seeding. On day 14 after seeding, conidiospores of powdery mildew were sifted over leaves of wheat seedlings and inoculated onto the leaves (after the sprayed liquid was dried in the case of Comparative Examples), a lesion area ratio of powdery mildew in a first leaf was investigated 19 days after seeding according to the criteria in Table 1, and the degree of disease occurrence was calculated by the above calculation formula (1).

[4] = test system: powdery mildew; experiment: Test Example 2: control test of wheat powdery mildew, pot in greenhouse, inoculated, wheat variety Norin No. 61; assay type: in vivo, Blumeria graminis; settings: for Degree of Disease Occurrence: inoculated day 49, first leaf, 59 days after seeding
Protocol: as §1
(§3) Seed having a mass of 1 kg of wheat (variety: Norin No. 61) was mixed into 100 ml of suspension water containing 5 g or 0.5 g of dichlobentiazox or isotianil (commercial Routine flowable was used, “Routine” is a registered trademark) and air-dried, and then, 15 seeds were sown in a plastic pot of 9 cm×9 cm containing horticultural soil and managed in a greenhouse. The number of emerged seeds was investigated 10 days after seeding, and an emergence rate was calculated (Examples 2 to 5). On day 49 after seeding, conidiospores of powdery mildew were sifted over leaves of wheat seedlings and inoculated onto the leaves, a lesion area ratio of powdery mildew in a first leaf was investigated 59 days after seeding according to the criteria in Table 1, and the degree of disease occurrence was calculated by the above calculation formula (1).

[5] = test system: wheat (variety: Norin No. 61); experiment: Test Example 2: emergence rate of treated wheat seed; assay type: in vivo; settings: 10 days after seeding
Protocol: as §3

[6] = test system: wheat (variety: Norin No. 61); experiment: Test Example 3: emergence rate of wheat seed; assay type: in vivo
Protocol: as §2

[7] = test system: powdery mildew; experiment: Test Example 5: control test of wheat powdery mildew, field, wheat variety Haruyutaka; assay type: in vivo, Blumeria graminis; settings: for Degree of Disease Occurrence / Disease Leaf Rate (%): Seed Treatment 2.5 g/Seed 1 kg (250 g/ha), leaves just below flag leaves, 85 days after seeding
Protocol: as §1
Seed of wheat (variety: Haruyutaka) sterilized in advance with commercial Benlate T wettable powder 20 (“Benlate” is a registered trademark) was used. In Examples 12, 13, and 14, seed having a mass of 1 kg was mixed into 50 ml of suspension water containing 2.5 g or 1.25 g of dichlobentiazox or 50 ml of suspension water containing 2.5 g of isotianil, air-dried, and then, stripe-sown in a field with a furrow width of 30 cm and a ratio of 100 kg/ha (300 seeds/m^2). Moreover, in Comparative Example 14, seed having a mass of 1 kg was mixed into 50 ml of suspension water containing 2.5 g of tiadinil (commercial V-GET flowable was used, “V-GET” is a registered trademark), air-dried, and then, stripe-sown in a field with a furrow width of 30 cm and a ratio of 100 kg/ha (300 seeds/m^2). The presence or absence of disease occurrence and a lesion area ratio of powdery mildew in leaves just below hag leaves (next leaves) of 30 stems were investigated 85 days after seeding by according to the criteria in Table 1, and a disease leaf rate and the degree of disease occurrence were calculated by the above calculation formula(1).

[8] = test system: wheat (variety: Haruyutaka); experiment: Test Example 6: evaluation test of shortening of wheat (culm length, seed yield), field; assay type: in vivo; settings: Propiconazole foliage spray 125 g/ha three times only, no seed treatment
[9] = Seed Treatment 0.5 g/Seed 1 kg (50 g/ha)
[10] = Seed Treatment 5 g/Seed 1 kg (500 g/ha)

Compound: CO/C=C(/C(=O)OC)c1ccccc1Oc1cc(Oc2ccccc2C#N)ncn1 [Azoxystrobin, azoxystrobin, reference compound]
- Degree of Disease Occurrence ([1]; spray 250 g/ha three times): 17.6
- Disease Leaf Rate (%) ([1]; spray 250 g/ha three times): 90.0%

Compound: N#Cc1c(Cl)c(Cl)c(Cl)c(C#N)c1Cl [Chlorothalonil, chlorothalonil, reference compound]
- Degree of Disease Occurrence ([2]; Foliage Treatment, spray 750 g/ha two times (154 and 184 days after seeding)): 3.1

Compound: N#Cc1ccccc1NC(=O)c1snc(Cl)c1Cl [Compound (10), Isotianil]
- Degree of Disease Occurrence ([3]; Foliage Treatment, spray 50 ppm suspension water (50 g/ha) day 14, first leaf): 47.2
- Degree of Disease Occurrence ([3]; Foliage Treatment, spray 500 ppm suspension water (500 g/ha) day 14, first leaf): 27.8
- Degree of Disease Occurrence ([3]; Seed Treatment 0.5 g/Seed 1 kg (50 g/ha), inoculated day 14, first leaf): 23.5
- Degree of Disease Occurrence ([3]; Seed Treatment 5 g/Seed 1 kg (500 g/ha), inoculated day 14, first leaf): 4.4
- disease occurrence of powdery mildew, seed treatment compared with spraying on foliage during a growing period ([3]; seed treatment): suppressed lower
- Degree of Disease Occurrence [4, 9]: 7.6
- Degree of Disease Occurrence [4, 10]: 7.1
- disease occurrence under artificial inoculation of powdery mildew ([4]; seed treatment): the disease occurrence was suppressed
- Emergence Rate (%) [5, 9]: 96%
- Emergence Rate (%) [5, 10]: 100%
- Degree of Disease Occurrence [2, 9]: 2.1
- disease occurrence of septoria leaf blotch, seed treatment compared with foliage spraying of chlorothalonil ([2]; seed treatment): more suppressed
- Emergence Rate (%) ([6]; Foliage Treatment group, spray 50 ppm (50 g/ha) 14 days after seeding, emergence counted nine days after seeding): 97%
- Emergence Rate (%) ([6]; Foliage Treatment group, spray 500 ppm (500 g/ha) 14 days after seeding, emergence counted nine days after seeding): 100%
- Emergence Rate (%) ([6]; Seed Treatment 0.5 g/Seed 1 kg (50 g/ha), nine days after seeding): 100%
- Emergence Rate (%) ([6]; Seed Treatment 5 g/Seed 1 kg (500 g/ha), nine days after seeding): 83.3%
- Degree of Disease Occurrence [7]: 1.0
- Disease Leaf Rate (%) [7]: 4.4%
- disease occurrence of powdery mildew, seed treatment compared with seed treatment with tiadinil ([7]; seed treatment): suppresses the disease occurrence of powdery mildew lower

Compound: CCCC1COC(Cn2cncn2)(c2ccc(Cl)cc2Cl)O1 (stereo not shown) [Propiconazole, propiconazole, reference compound]
- Degree of Disease Occurrence ([1]; spray 125 g/ha three times): 4.4
- Disease Leaf Rate (%) ([1]; spray 125 g/ha three times): 32.2%
- Culm Length (cm) ([8]; harvested 106 days after seeding): 82.5 cm
- Seed Yield ([8]; wheat in 3 m2, 106 days after seeding): 990 g

Compound: Cc1ccc(NC(=O)c2snnc2C)cc1Cl [Tiadinil, tiadinil, reference compound]
- Degree of Disease Occurrence [7]: 11.0
- Disease Leaf Rate (%) [7]: 33.3%
